Source: ChEMBL document CHEMBL1201862, “PubChem BioAssay data set” (2004)
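Five compound concentrations were applied to cells in 96-well plates for 48 hours; endpoints were derived by simple linear interpolation of the resulting dose-response curve. GI50 is the concentration that inhibits growth by half.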 The source made the active and inactive calls. Rule as the data show it: active = GI50 up to about 1.1 µM and inactive = higher.

Experiments:
Assay in all cases: DTP human tumour cell line panel, 48 h
IGROV-1 = tested on: IGROV-1
UACC-62 = tested on: UACC-62
HL-60 = tested on: HL-60
786-0 = tested on: 786-0
SNB-19 = tested on: SNB-19
SNB-78 = tested on: SNB-78
SF-268 = tested on: SF-268
NCI-H226 = tested on: NCI-H226
NCI-H522 = tested on: NCI-H522
NCI-H23 = tested on: NCI-H23
COLO 205 = tested on: COLO 205
SN12C = tested on: SN12C
UACC-257 = tested on: UACC-257
A498 = tested on: A498
LOX IMVI = tested on: LOX IMVI
SK-MEL-28 = tested on: SK-MEL-28
SR = tested on: SR

Measured: GI50

CC1(C)OB(O)OC1(C)C
inactive: IGROV-1 > 100 µM | UACC-62 > 100 µM | HL-60 > 100 µM | 786-0 > 100 µM | SNB-19 > 100 µM | SNB-78 > 100 µM | SF-268 > 100 µM | NCI-H226 > 100 µM | NCI-H522 > 100 µM | NCI-H23 > 100 µM | COLO 205 > 100 µM | SN12C > 100 µM | UACC-257 > 100 µM | A498 > 100 µM | LOX IMVI > 100 µM | SK-MEL-28 > 100 µM

CNC(=S)NC1CCCCC1NC(=S)NC (configuration not stated)
inactive: IGROV-1 > 100 µM | UACC-62 > 100 µM | HL-60 > 100 µM | 786-0 > 100 µM | SNB-19 > 100 µM | SNB-78 > 100 µM | SF-268 > 100 µM | NCI-H226 > 100 µM | NCI-H522 > 100 µM | NCI-H23 > 100 µM | COLO 205 > 100 µM | SN12C > 100 µM | SR > 100 µM | LOX IMVI > 100 µM | SK-MEL-28 > 100 µM

O=C(N/C(=C\c1cccc([N+](=O)[O-])c1)c1nc2ccccc2[nH]1)c1ccccc1
inactive: IGROV-1 91.4 µM | UACC-62 88.1 µM | 786-0 55.2 µM | SNB-19 61.2 µM | SNB-78 44.6 µM | SF-268 45.3 µM | NCI-H226 51.6 µM | NCI-H522 36.8 µM | NCI-H23 49.1 µM | COLO 205 93.1 µM | SN12C 68.7 µM | SR 37.3 µM | UACC-257 > 100 µM | A498 35.8 µM | SK-MEL-28 18.3 µM

CC(C)C(/C=C/c1ccc(Br)cc1)=N\NC(N)=O
inactive: IGROV-1 > 100 µM | UACC-62 > 100 µM | HL-60 > 100 µM | 786-0 > 100 µM | SNB-19 > 100 µM | SNB-78 > 100 µM | SF-268 > 100 µM | NCI-H226 > 100 µM | NCI-H522 70.3 µM | NCI-H23 > 100 µM | COLO 205 > 100 µM | SN12C > 100 µM | SR > 100 µM | UACC-257 > 100 µM | LOX IMVI > 100 µM | SK-MEL-28 > 100 µM

CCCC(=O)OCC(O)CO (configuration not stated)
inactive: IGROV-1 > 5000 µM | UACC-62 2170 µM | HL-60 2920 µM | 786-0 > 5000 µM | SNB-78 > 5000 µM | SF-268 > 5000 µM | NCI-H226 > 5000 µM | NCI-H522 3740 µM | NCI-H23 > 5000 µM | COLO 205 > 5000 µM | SN12C > 5000 µM | SR > 5000 µM | UACC-257 > 5000 µM | LOX IMVI > 5000 µM | SK-MEL-28 > 5000 µM

Cc1cc(C)nc(NS(=O)(=O)c2ccc(NC(=O)c3cccc4c(Nc5ccc(S(=O)(=O)N=C(N)N)cc5)c5ccccc5nc34)cc2)n1
inactive: IGROV-1 40.4 µM | UACC-62 29.9 µM | HL-60 5.56 µM | 786-0 30.3 µM | SNB-19 33.1 µM | SNB-78 8.3 µM | SF-268 22.5 µM | NCI-H522 44.3 µM | NCI-H23 40 µM | COLO 205 37.9 µM | SN12C 50.7 µM | UACC-257 24.7 µM | A498 > 100 µM | LOX IMVI 39.5 µM | SK-MEL-28 33.4 µM

CCOc1ccc(C2=NN(CC)C(=O)C(C3C(=O)N(c4ccccc4)N=C3C)C2)cc1 (configuration not stated)
inactive: IGROV-1 > 100 µM | UACC-62 > 100 µM | HL-60 > 100 µM | 786-0 > 100 µM | SNB-19 > 100 µM | SNB-78 > 100 µM | SF-268 > 100 µM | NCI-H226 > 100 µM | NCI-H522 > 100 µM | NCI-H23 > 100 µM | COLO 205 > 100 µM | UACC-257 > 100 µM | A498 > 100 µM | LOX IMVI > 100 µM | SK-MEL-28 > 100 µM

CN(C)CC1CCC/C1=N\O (configuration not stated)
inactive: IGROV-1 > 100 µM | UACC-62 > 100 µM | 786-0 > 100 µM | SNB-78 > 100 µM | SF-268 > 100 µM | NCI-H226 > 100 µM | NCI-H522 > 100 µM | NCI-H23 > 100 µM | COLO 205 > 100 µM | SN12C > 100 µM | SR > 100 µM | UACC-257 > 100 µM | A498 > 100 µM | LOX IMVI > 100 µM | SK-MEL-28 > 100 µM

CC(CC(=O)N1C(=O)C(C)(C)[C@@H](O)[C@H]1CC(C)C(Cl)(Cl)Cl)C(Cl)(Cl)Cl (some centres not stated)
inactive: IGROV-1 > 100 µM | UACC-62 > 100 µM | HL-60 > 100 µM | 786-0 > 100 µM | SNB-19 > 100 µM | SNB-78 > 100 µM | SF-268 > 100 µM | NCI-H226 > 100 µM | NCI-H522 > 100 µM | COLO 205 > 100 µM | SN12C > 100 µM | UACC-257 > 100 µM | A498 > 100 µM | LOX IMVI > 100 µM

COC(=O)C1=C(c2cc(OC)c(OC)c(OC)c2)OC(c2ccc3c(c2)OCO3)C1 (configuration not stated)
inactive: IGROV-1 2.12 µM | UACC-62 5.05 µM | 786-0 35.2 µM | SNB-19 42.5 µM | SNB-78 87.3 µM | SF-268 56.5 µM | NCI-H226 56 µM | NCI-H23 25.7 µM | COLO 205 12.8 µM | SN12C 20.3 µM | SR 5.38 µM | UACC-257 54.3 µM | A498 8.95 µM | LOX IMVI 6.28 µM | SK-MEL-28 48 µM

c1ccc(C2(c3ccccc3)SSC3(S2)C2CC4CC(C2)CC3C4)cc1 (configuration not stated)
inactive: IGROV-1 > 100 µM | UACC-62 > 100 µM | HL-60 35.9 µM | 786-0 > 100 µM | SNB-19 > 100 µM | SNB-78 > 100 µM | SF-268 > 100 µM | NCI-H23 > 100 µM | SN12C > 100 µM | SR > 59.2 µM | UACC-257 > 100 µM | A498 > 100 µM | LOX IMVI > 100 µM | SK-MEL-28 > 100 µM

N#CC(C(=O)/C(=N\NC(N)=O)C(C#N)c1ccc(Cl)cc1)c1ccc(Cl)cc1 (configuration not stated)
inactive: IGROV-1 > 100 µM | UACC-62 > 100 µM | HL-60 > 100 µM | 786-0 > 100 µM | SNB-19 > 100 µM | SNB-78 > 100 µM | SF-268 > 100 µM | NCI-H226 > 100 µM | NCI-H522 > 100 µM | NCI-H23 > 100 µM | COLO 205 > 100 µM | SN12C > 100 µM | UACC-257 > 100 µM | A498 > 100 µM | LOX IMVI > 100 µM | SK-MEL-28 > 100 µM

CCc1cccc(C)c1N1C(=O)C(=O)C(c2nc3ccccc3o2)/C(=N/NC(=S)NN)C1=O (configuration not stated)
inactive: IGROV-1 > 100 µM | UACC-62 > 100 µM | HL-60 > 100 µM | 786-0 > 100 µM | SNB-19 > 100 µM | SNB-78 > 100 µM | SF-268 > 100 µM | NCI-H226 > 100 µM | NCI-H522 > 100 µM | NCI-H23 > 100 µM | COLO 205 > 100 µM | SN12C > 100 µM | UACC-257 > 100 µM | A498 > 100 µM | LOX IMVI > 100 µM | SK-MEL-28 > 100 µM
